Experimental data published in ChEMBL document CHEMBL1156391, “Screening of triterpenoids isolated from Phyllanthus flexuosus for DNA topoisomerase inhibitory activity” (J Nat Prod, 2001).
Active and inactive are the calls of the source. No cut-off for these calls is given here.

What was measured:
[1] = molecular target: T1, DNA topoisomerase 1 (Homo sapiens) (UniProt P11387); assay: Inhibition of human topoisomerase 1 assessed as relaxation of supercoiled pBR322 DNA up to 200 uM by agarose gel electrophoresis
T1 sequence (whole entry): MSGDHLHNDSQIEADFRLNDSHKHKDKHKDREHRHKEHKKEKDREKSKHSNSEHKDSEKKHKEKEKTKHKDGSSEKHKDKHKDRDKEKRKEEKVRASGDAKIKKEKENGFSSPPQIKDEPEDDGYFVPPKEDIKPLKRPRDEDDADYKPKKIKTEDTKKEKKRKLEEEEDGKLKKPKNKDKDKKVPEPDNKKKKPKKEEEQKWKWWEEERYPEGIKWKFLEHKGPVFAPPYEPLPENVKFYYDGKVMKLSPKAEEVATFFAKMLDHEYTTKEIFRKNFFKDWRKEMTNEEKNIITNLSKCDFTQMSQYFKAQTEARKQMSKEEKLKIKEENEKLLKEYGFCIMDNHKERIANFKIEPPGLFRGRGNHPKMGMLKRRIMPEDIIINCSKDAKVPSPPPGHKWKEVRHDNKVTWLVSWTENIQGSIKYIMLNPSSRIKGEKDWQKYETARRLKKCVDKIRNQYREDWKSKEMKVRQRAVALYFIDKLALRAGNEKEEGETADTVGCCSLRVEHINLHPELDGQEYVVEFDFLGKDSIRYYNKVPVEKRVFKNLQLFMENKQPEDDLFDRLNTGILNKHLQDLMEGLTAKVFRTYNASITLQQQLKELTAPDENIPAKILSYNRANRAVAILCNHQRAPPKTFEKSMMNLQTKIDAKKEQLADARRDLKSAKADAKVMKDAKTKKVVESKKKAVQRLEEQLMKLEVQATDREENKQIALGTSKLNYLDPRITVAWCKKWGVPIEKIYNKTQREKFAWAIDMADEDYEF

[2] = molecular target: T2, DNA topoisomerase 2-alpha (Homo sapiens, UniProt P11388); assay: Inhibition of 1 unit human topoisomerase 2alpha catalytic activity assessed as relaxation of 198 ng supercoiled pBR322 DNA at 200 uM by agarose gel electrophoresis
[3] = molecular target: T2, DNA topoisomerase 2-alpha; assay: Inhibition of human 1 unit topoisomerase 2alpha catalytic activity assessed as relaxation of 198 ng supercoiled pBR322 DNA by agarose gel electrophoresis
[4] = molecular target: T2, DNA topoisomerase 2-alpha; assay: Inhibition of 1 unit human topoisomerase 2alpha catalytic activity assessed as relaxation of 198 ng supercoiled pBR322 DNA at 100 uM by agarose gel electrophoresis

T2 sequence (P11388 whole entry): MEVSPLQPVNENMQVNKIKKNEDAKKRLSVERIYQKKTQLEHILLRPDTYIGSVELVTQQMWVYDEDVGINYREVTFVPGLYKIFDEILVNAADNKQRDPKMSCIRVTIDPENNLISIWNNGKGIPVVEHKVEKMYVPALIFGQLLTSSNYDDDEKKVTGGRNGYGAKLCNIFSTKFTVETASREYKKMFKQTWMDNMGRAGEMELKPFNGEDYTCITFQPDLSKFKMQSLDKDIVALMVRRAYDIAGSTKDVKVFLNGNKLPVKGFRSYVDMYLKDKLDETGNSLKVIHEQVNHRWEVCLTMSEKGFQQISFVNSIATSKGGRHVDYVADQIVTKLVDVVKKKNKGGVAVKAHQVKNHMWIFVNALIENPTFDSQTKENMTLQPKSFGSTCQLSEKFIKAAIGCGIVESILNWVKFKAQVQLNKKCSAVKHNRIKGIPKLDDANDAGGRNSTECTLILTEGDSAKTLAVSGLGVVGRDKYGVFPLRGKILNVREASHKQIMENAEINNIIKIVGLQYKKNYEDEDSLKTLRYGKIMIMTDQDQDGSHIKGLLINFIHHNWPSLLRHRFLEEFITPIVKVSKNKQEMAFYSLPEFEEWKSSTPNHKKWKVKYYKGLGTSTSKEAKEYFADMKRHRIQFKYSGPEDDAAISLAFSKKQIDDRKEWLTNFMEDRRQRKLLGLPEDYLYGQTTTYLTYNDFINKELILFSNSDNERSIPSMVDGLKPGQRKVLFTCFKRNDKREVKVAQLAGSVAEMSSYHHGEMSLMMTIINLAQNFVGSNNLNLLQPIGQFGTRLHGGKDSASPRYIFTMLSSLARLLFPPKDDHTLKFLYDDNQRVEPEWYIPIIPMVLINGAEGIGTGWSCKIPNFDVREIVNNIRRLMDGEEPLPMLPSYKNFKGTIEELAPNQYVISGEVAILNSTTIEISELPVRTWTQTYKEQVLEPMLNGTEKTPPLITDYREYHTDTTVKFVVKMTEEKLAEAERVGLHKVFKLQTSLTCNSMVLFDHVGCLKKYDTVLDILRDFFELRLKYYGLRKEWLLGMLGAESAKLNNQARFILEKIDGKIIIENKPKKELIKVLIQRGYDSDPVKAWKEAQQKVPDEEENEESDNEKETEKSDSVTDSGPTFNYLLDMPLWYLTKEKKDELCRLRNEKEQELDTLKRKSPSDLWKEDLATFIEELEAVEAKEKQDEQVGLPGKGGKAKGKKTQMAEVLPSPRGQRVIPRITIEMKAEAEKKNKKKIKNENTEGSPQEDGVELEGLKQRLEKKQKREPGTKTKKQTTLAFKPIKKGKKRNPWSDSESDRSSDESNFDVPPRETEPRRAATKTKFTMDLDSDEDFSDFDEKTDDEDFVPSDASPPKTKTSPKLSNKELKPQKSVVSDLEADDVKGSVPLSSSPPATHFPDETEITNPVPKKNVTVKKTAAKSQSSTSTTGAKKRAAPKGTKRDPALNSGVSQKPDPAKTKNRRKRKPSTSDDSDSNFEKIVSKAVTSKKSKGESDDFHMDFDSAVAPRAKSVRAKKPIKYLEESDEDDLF

SMILES | Activity [1] | inhibition [2] | IC50 [3] [µM] | Activity [3] | Activity [4]
CC1(C)CC[C@]2(C)CC[C@]3(C)C(=CC[C@@H]4[C@@]5(C)CC[C@H](O)[C@](C)(CO)[C@@H]5CC[C@]43C)[C@@H]2C1 | inactive | 33% | > 200 |  | 
C=C(C)[C@@H]1CC[C@]2(C)CC[C@]3(C)[C@H](CC[C@@H]4[C@@]5(C)CC[C@H](O)[C@](C)(CO)[C@@H]5CC[C@]43C)[C@H]12 | inactive | inactive |  |  | 
C=C(C)[C@@H]1CC[C@]2(CO)CC[C@]3(C)[C@H](CC[C@@H]4[C@@]5(C)CC[C@H](O)C(C)(C)[C@@H]5CC[C@]43C)[C@@H]12 [BETULIN] | inactive |  | 38.6 | Dose-dependent effect | Active
CC1(C)CC[C@]2(C)C[C@H](O)[C@]3(C)C(=CC[C@@H]4[C@@]5(C)CC[C@H](O)C(C)(C)[C@@H]5CC[C@]43C)[C@@H]2C1 | inactive |  | 17.5 | Dose-dependent effect | Active
C=C(C)[C@@H]1CC[C@]2(C)CC[C@]3(C)[C@H](CC[C@@H]4[C@@]5(C)CC[C@H](O)C(C)(C)[C@@H]5CC[C@]43C)[C@@H]12 [LUPEOL] | inactive |  | 10.4 | Dose-dependent effect | Active
CC1(C)CC[C@]2(C)C[C@H](O)[C@]3(C)C(=CC[C@@H]4[C@@]5(C)CC[C@H](O)[C@](C)(CO)[C@@H]5CC[C@]43C)[C@@H]2C1 | inactive |  | 38.7 | Dose-dependent effect | Active
